Patent publication US5952376A, “Trienyl compounds” (The Trustees of the University of Pennsylvania, priority 1997, dated 1999)

Key:
human cancer cell lines = experiment: antitumor activity against a series of human cancer cell lines; type: cell-based
Protocol: (§1) Trienes (+)-3a and (+)-3b were tested for antitumor activity generally in accordance with the procedure described by Bai, et al., Biochemistry 1995, 34, 9714.

SW 1736 = experiment: Antitumor Activity (in vitro), Thyroid ca SW 1736; type: cell-based; settings: Homo sapiens
Protocol: as §1

DU-145 = experiment: Antitumor Activity (in vitro), Prostate DU-145; type: cell-based; settings: Homo sapiens
Protocol: as §1

BXPC-3 = experiment: Antitumor Activity (in vitro), Pancreas-a BXPC-3; type: cell-based; settings: Homo sapiens
Protocol: as §1

SK-N-SH = experiment: Antitumor Activity (in vitro), Neuroblast SK-N-SH; type: cell-based; settings: Homo sapiens
Protocol: as §1

FADU = experiment: Antitumor Activity (in vitro), Pharynx-sq FADU; type: cell-based; settings: Homo sapiens
Protocol: as §1

NCI-H460 = experiment: Antitumor Activity (in vitro), Lung-NSC NCI-H460; type: cell-based; settings: Homo sapiens
Protocol: as §1

[1] = system: chemoresistant tumor types, including human melanoma and lung, colon, and brain cancers; settings: cited from earlier work
tubulin = settings: cited from earlier work
microtubule assembly = settings: cited from earlier work
mitosis = settings: cited from earlier work

| Compound | antitumor activity (human cancer cell lines) | GI50 (SW 1736) | GI50 (DU-145) | GI50 (BXPC-3) | GI50 (SK-N-SH) | GI50 (FADU) | GI50 (NCI-H460) | activity against chemoresistant tumor types [1] | binding to tubulin (tubulin) | blocking microtubule assembly (microtubule assembly) | inhibition of mitosis (mitosis) |
| --- | --- | --- | --- | --- | --- | --- | --- | --- | --- | --- | --- |
| C=C/C=C/C(O)CC(=C)C[C@H]1OC(OC)[C@H](OCc2ccccc2)[C@@H](OCc2ccccc2)[C@@H]1OCc1ccccc1 (single isomer, unassigned) [Triene 3a] | active | 1200 nM | 560 nM | 440 nM | 540 nM | 470 nM | 460 nM |  |  |  |  |
| C=C(Cl)/C=C/C(O)CC(=C)C[C@H]1OC(OC)[C@H](OCc2ccccc2)[C@@H](OCc2ccccc2)[C@@H]1OCc1ccccc1 (single isomer, unassigned) [Triene 3b] | active | 9600 nM | > 16000 nM | 5300 nM | 3600 nM | 8300 nM | 11000 nM |  |  |  |  |
| Spongistatin 1 |  |  |  |  |  |  |  | active | binding to tubulin | blocking microtubule assembly | inhibits mitosis |
